Assay results published in paper PMC4306314, “Differential neuroprotective potential of CRMP2 peptide aptamers conjugated to cationic, hydrophobic, and amphipathic cell penetrating peptides” (Frontiers in Cellular Neuroscience, 2015).
pIC50: −log10 of the molar value. Read-outs that look alike come from different tables or passages of the source. Where no end group is shown, it is not given here.

Tests used:
[1] = biological target: T1, CRMP2-NR2B interaction (Rattus norvegicus, UniProt Q00960); test: Co-immunoprecipitation of NR2B with CRMP2 from rat brain lysates; format: binding; conditions: 10 µM peptide, overnight 4°C, rat brain lysate, immunoblot, n = 4
T1 construct: Rat brains were lysed into the immunoprecipitation buffer; from tissue; host or cells: rat brain
T1 sequence (Q00960 27-1482, other chains not shown): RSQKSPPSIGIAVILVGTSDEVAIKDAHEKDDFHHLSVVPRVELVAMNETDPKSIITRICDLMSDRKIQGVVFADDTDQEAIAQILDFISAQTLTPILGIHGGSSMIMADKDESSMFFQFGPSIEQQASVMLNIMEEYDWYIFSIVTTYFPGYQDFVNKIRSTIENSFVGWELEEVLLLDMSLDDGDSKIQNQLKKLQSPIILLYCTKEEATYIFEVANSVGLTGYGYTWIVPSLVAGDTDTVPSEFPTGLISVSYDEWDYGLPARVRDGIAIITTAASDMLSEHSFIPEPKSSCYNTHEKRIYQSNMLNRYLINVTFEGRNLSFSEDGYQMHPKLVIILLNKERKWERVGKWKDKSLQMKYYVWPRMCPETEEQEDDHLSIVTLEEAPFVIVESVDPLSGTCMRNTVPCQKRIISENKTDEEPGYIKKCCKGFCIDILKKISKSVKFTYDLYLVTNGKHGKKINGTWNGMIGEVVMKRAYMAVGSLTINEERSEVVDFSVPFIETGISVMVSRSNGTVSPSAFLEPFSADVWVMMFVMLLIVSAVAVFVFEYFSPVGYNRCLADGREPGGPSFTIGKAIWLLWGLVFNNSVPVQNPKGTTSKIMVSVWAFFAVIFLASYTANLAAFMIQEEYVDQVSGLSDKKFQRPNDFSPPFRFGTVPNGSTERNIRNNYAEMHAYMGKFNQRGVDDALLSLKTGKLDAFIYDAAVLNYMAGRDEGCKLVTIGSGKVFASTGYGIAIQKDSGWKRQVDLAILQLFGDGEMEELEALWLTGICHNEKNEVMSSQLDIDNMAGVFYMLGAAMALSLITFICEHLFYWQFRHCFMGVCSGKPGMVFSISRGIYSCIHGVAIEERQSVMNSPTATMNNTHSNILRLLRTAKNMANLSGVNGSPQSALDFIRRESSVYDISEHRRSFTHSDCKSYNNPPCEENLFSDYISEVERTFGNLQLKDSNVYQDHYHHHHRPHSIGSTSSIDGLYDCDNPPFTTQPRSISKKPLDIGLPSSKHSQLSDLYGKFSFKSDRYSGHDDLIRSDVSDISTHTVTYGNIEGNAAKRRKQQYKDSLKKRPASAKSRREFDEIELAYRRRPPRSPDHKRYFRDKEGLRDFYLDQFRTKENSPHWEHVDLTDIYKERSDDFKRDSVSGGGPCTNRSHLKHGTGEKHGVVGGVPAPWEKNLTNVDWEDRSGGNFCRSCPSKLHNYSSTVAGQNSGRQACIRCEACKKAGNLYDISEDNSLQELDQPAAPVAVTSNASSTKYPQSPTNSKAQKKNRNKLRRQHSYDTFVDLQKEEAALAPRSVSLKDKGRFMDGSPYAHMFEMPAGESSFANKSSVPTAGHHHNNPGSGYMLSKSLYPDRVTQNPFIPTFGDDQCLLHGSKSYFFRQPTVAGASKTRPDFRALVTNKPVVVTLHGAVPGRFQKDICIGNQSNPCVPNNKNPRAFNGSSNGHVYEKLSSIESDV
Procedure: Rat brains were lysed into the immunoprecipitation buffer containing 20 mM Tris-HCl pH 7.4, 50 mM NaCl, 2 mM MgCl2, 1% (vol/vol) NP40, 0.5% (mass/vol) sodium deoxycholate with Protease/phosphatase inhibitors cocktails (Calbiochem) and Benzonase (50 U/mL^−1), using a dounce homogenizer. The lysates were clarified by centrifugation at 10000 g, 10 min, 4°C then total protein concentration was determined by BCA protein assay (Cat# PI23225, Thermo scientific). For the co-immunoprecipitation, 300 µg of total protein was incubated with 1 µg of CRMP2 antibody (Cat# C2993, Sigma, St. Louis, MO, USA) of non-specific rabbit IgG, in the presence of 10 µM of the indicated peptides and incubated overnight at 4°C under gentle agitation. Protein G magnetic beads (Cat# 10004D, Life Technologies) pre-equilibrated with the immunoprecipitation buffer, were added to the mixture and allowed to incubate for 1 h at 4°C to capture the immuno-complexes. The beads were washed four times with the immunoprecipitation buffer before re-suspension in Laemmli buffer and boiling at 95°C for 5 min prior to immunoblotting.
Indicated samples were loaded on 4–12% NuPAGE® gels (Life Technologies). […] Films were scanned, and quantified using Un-Scan-It gel version 6.1 scanning software (Silk Scientific Inc, Orem, UT, USA).

[2] = test system: cortical neurons; test: Glutamate-induced toxicity, chromogenic cell viability assay; format: cell-based, rat; conditions: for Prevention of Glu/Gly-induced neuronal cell death by NMDAR subunit blockers: Ifenprodil 1 µM, Peaqx 5 µM, 10 min before and during 200 µM glutamate/20 µM glycine 30 min, 7 DIV, viability 24 h later, 32 wells
Procedure: E19 neurons (grown in 96 well plates) were stimulated with 200 µM glutamate/20 µM glycine to induce neuronal death as previously described with modifications (Brittain et al., [2011a]). Neurons were pre-treated with peptides by removing half of the culture medium and replacing with fresh medium containing twice the final concentration of peptide. Neurons were then stimulated by removing half the medium and replacing with fresh medium containing 400 µM glutamate/40 µM glycine and 1X peptide concentration. Following a 30 min stimulation the medium was completely removed and replaced with half fresh/half conditioned medium. Cell viability was quantified 24 h later using the 3-(4,5-dimethylthiazol-2-yl)-5-(3-carboxymethoxyphenyl)-2-(4-sulfophenyl)-2H-tetrazolium cell viability assay (Promega, Madison, WI, USA) as previously described (Brittain et al., [2011a]). Subunit-specific NMDAR antagonists Peaqx (NR2A) and Ifenprodil (NR2B) were purchased from Sigma.

[3] = of the CPP itself; ref Sarko et al., 2010; cited from earlier work
[4] = parameters: method as in Wender et al., 2000; conditions: ref Wender et al., 2000; cited from earlier work
[5] = test system: cortical neurons; test: Uptake and efflux of FITC-labeled CBD3 peptides from cortical neurons; format: in vitro ADME, rat; conditions: for Cumulative efflux (AUC), glutamate-challenged vs unchallenged cells, long-term application: chronic peptide treatment, media sampled up to 3 h
Procedure: Cortical neurons were seeded into 96-well plates at 3.5 × 10^4 cells per well and cultured until 7 DIV at 37°C and 5% CO2. […] After four washes with phenol red free Leibovitz medium, the FITC fluorescence in the cells was measured using a Synergy 2 fluorescent plate reader (Biotek, Winooski, VT, USA) at an excitation wavelength of 485 nm and emission wavelength of 530 nm. […] To correct for any differences in cell plating, at the end of the experiment cortical neurons were lysed with 20 mM Tris, pH 7.4, 50 mM NaCl, 1% NP40, 0.5% sodium deoxycholate, 0.1% SDS Protease inhibitor cocktail set III (Calbiochem), phosphatase inhibitor cocktail set I (Calbiochem), 50 U/ml benzonase (Merck) and the protein quantity determined with a Pierce assay.

[6] = test system: GPMVs derived from cortical neurons; test: Peptide penetration into giant plasma membrane vesicles (GPMVs), di-4-ANEPPDHQ staining; format: in vitro ADME, rat; conditions: 10 µM peptide; for Change in percent of GPMVs with intracellular staining, vesicles from Glu/Gly-challenged vs unchallenged cells: neurons challenged 1 h with 200 µM glutamate + 20 µM glycine before vesiculation
Procedure: Giant plasma membrane vesicles (GPMVs) were obtained as previously described in Sezgin et al. ([2012]). Briefly, GPMVs were generated from cortical neurons incubated at 37°C for 90 min in a vesiculation buffer containing 10 mM HEPES, 150 mM NaCl, 2 mM CaCl2, pH 7.4 containing 2 mM N-ethyl maleimide (NEM). After GPMV formation, the buffer containing vesicles was recovered and conserved at 4°C for at least 2 h to allow the vesicles to concentrate at the bottom of the tube. As the GPMVs were stable for ~48 h (data not shown), they were used the day after formation at the latest.
All experiments for microscopic analyses of GPMVs were performed on 35 mm glass bottom dishes pre-coated with BSA (1 mg/mL for 1 h at room temperature). Approximately 100 µL of GMPVs labeled with 5 µM di-4-ANEPPDHQ were incubated for 3 h at room temperature with 10 µM of CBD3 peptide aptamers. di-4-ANEPPDHQ, a styryl dye that was originally developed to detect transmembrane potential changes, is considered to be a good probe for rafts (Jin et al., [2005]) and was used to label GPMVs. di-4-ANEPPDHQ is able to partition into both liquid-ordered and liquid-disordered phase domains in model membranes, reacts to the environmental difference between the two phases via conformational changes, thus resulting in different fluorescence properties (Jin et al., [2005]). Here, we studied the 500–550 nm emission of the probe, which accounts largely for the liquid ordered phase.
Fluorescence imaging was performed with an inverted microscope, Nikon Eclipse TE2000-U, using objective Nikon Super Fluor 20× 0.75 NA and a Photometrics cooled CCD camera CoolSNAPHQ-ES2 (Roper Scientific, Tucson, AZ, USA) controlled by MetaFluor 6.3 software (Molecular Devices, Downingtown, PA, USA). […] Twenty images of each condition were systematically recorded randomly, using a FITC filter (excitation and emission wavelength 488 nm and 500–550 nm, respectively), which accounted for the liquid ordered contribution of di-4-ANEPPDHQ or the localization of FITC-peptides.

KLALKLALKALKAALKLAARSRLAELRGVPRGL [MAP-CBD3]
Inhibition of NR2B-CRMP2 interaction relative to no peptide control [1]: ~ 60%

C[C@H](NC(c1cccc2[nH]c(=O)c(=O)[nH]c12)P(=O)(O)O)c1ccc(Br)cc1 (some centres unmarked) [Peaqx, reference compound]
Prevention of Glu/Gly-induced neuronal cell death by NMDAR subunit blockers [2]: not

YGRKKRRQRRR [TAT]
Half-life (t1/2) [3]: ~ 9 h

RRRRRRRRR [R9, nona-arginine]
Penetration compared to TAT [4]: greater than 20 fold
Half-life (t1/2) [3]: ~ 2 h

AAVALLPAVLLALLAP [MTS]
Half-life (t1/2) [3]: ~ 48 h

YGRKKRRQRRRARSRLAELRGVPRGL [TAT-CBD3]
pIC50 ([2]; concentration-response viability curve, four-parameter fit, variable Hill slope, 32 wells from two experiments, extrapolated, read-out: IC50 for inhibition of glutamate-mediated toxicity): 5.49
Efflux fluorescence compared to MTS-CBD3-treated cells, long-term application ([5]; 1, 2 and 3 h post peptide application, irrespective of excitotoxic challenge): lower
Cumulative efflux (AUC), glutamate-challenged vs unchallenged cells, long-term application [5]: indistinguishable
Percent of GPMVs exhibiting lumenal accumulation of smaller vesicles ([6]; GPMVs from control (untreated) cortical neurons, 5 µM di-4-ANEPPDHQ, room temperature, 3 h (methods) or 60 min, fluorescence microscopy, n = 2 experiments): ~ 54%
Change in percent of GPMVs with intracellular staining, vesicles from Glu/Gly-challenged vs unchallenged cells [6]: did not alter

CC(C(O)c1ccc(O)cc1)N1CCC(Cc2ccccc2)CC1 (centres unmarked) [Ifenprodil, reference compound]
Prevention of Glu/Gly-induced neuronal cell death by NMDAR subunit blockers [2]: completely prevent

RRRRRRRRRARSRLAELRGVPRGL [R9-CBD3]
pIC50 ([2]; 24 h): ~6.25
Inhibition of NR2B-CRMP2 interaction relative to no peptide control [1]: ~ 80%

AAVALLPAVLLALLAPARSRLAELRGVPRGL [MTS-CBD3]
Cumulative efflux (AUC), glutamate-challenged vs unchallenged cells, long-term application [5]: ~ 24%
Change in percent of GPMVs with intracellular staining, vesicles from Glu/Gly-challenged vs unchallenged cells [6]: did not alter

KLALKLALKALKAALKLA [MAP]
Half-life (t1/2) [3]: > 72 h
